From patent US10760110B2, “Antibiotic testing and screening system” (priority 2017, dated 2020)
Converted amounts (≈) assume the structure as drawn. Read-outs that look alike come from different tables or passages of the source.

Experiments:
[1] = test system: A. baumannii KW1 strains with β-lactamase plasmids; experiment: Etest MIC of β-lactams, extended-spectrum β-lactamase, AmpC β-lactamase or carbapenemase (Table 18); assay type: cell-based, Acinetobacter baumannii
Description: (§1) DNA fragments of the resistance genes along with their flanking regions were amplified from clinical plasmids via PCR with specific primer pairs. The resulting PCR fragments were digested and then cloned into the plasmid pYMAb5 or pYMAb5Tc. The resulting plasmids were then transformed into A. baumannii KW1 via electroporation.
(§2) The MICs of antibiotics were determined using the Etest (Biodisk AB, Sweden) according to the manufacturer's instructions. The MICs from the Etest, which fall between standard two-fold dilutions, were rounded up to the next highest two-fold value. The MICs of ceftazidime and cefotaxime against K. pneumoniae NVT1001 harbouring the pACYC177 plasmid with blaOXA-48 were further determined using a broth microdilution test according to the recommendations of the CLSI,^25 and the results were interpreted according to the breakpoints established by the CLSI in 2017.^25 Meanwhile, due to the lack of CLSI breakpoints in 2016 and 2017, the results for cephalothin were interpreted according to the breakpoints established by the CLSI in 2015,^26 and the results for moxifloxacin were interpreted according to the breakpoints established by the EUCAST in 2017.^27

[2] = test system: A. baumannii KW1 and its AdeR/AdeS mutants; experiment: Etest MIC, AdeABC overexpression via AdeR or AdeS mutation (Table 16); assay type: cell-based, Acinetobacter baumannii
Excerpt: DNA fragments of the entire adeR, adeS, gyrA and parC along with their flanking regions were amplified from A. baumannii KW1 using PCR with specific primer pairs and then cloned into plasmid pUT-KB. The QuikChange site-directed mutagenesis kit (Stratagene) was used to generate mutations in the adeR, adeS, gyrA and parC genes in the plasmids using the methods described by the manufacturer. For homologous recombination, plasmids containing mutations in the adeR, adeS, gyrA or parC gene were transformed into E. coli S17-1 λpir^23 via electroporation and mobilized into A. baumannii KW1 via conjugation. Single-crossover strains were selected from Luria-Bertani (LB) plates supplemented with cefotaxime (1 μg/ml) and kanamycin ([…]), as the growth of non-A. baumannii contaminants is suppressed by cefotaxime (1 μg/ml). The kanamycin-resistant transconjugants were selected and the insertion of plasmids was verified via PCR. After incubation in 20 ml brain heart infusion (BHI) broth for 6 hours in the absence of kanamycin at 37° C., the fully grown cultures were spread onto LB plates supplemented with 10% sucrose. After the double crossover occurred, the sucrose-resistant and kanamycin-susceptible colonies were selected, and the gene mutations were confirmed via PCR.
as §2

[3] = test system: K. pneumoniae NVT1001 and ΔramR strains with tet resistance gene plasmids; experiment: Etest MIC of tetracyclines, AcrAB-TolC overexpression (ΔramR) and/or tet resistance gene (Table 14); assay type: cell-based, Klebsiella pneumoniae; conditions: for MIC: Klebsiella pneumoniae
Description: DNA fragments of the resistance genes along with their flanking regions were amplified from clinical plasmids via PCR with specific primer pairs. The resulting PCR fragments were digested and then cloned into the plasmid pACYC177 or pACYC184. The resulting plasmids were then transformed into K. pneumoniae strain NVT1001 via electroporation. The recombinant bacteria were plated onto LB agar plates containing kanamycin (50 mg/L) or chloramphenicol (50 mg/L), and the presence of the cloned gene was confirmed via PCR and DNA sequencing.
as §2

[4] = test system: A. baumannii KW1 strains with tet resistance gene plasmids; experiment: Etest MIC of tetracyclines, tet resistance gene (Table 20); assay type: cell-based, Acinetobacter baumannii; conditions: for MIC: Acinetobacter baumannii
Description: as §1, §2

[5] = test system: K. pneumoniae NVT1001 and its ΔompK35/36 and/or ΔramR mutants; experiment: Etest MIC, OmpK35/36 loss and AcrAB-TolC overexpression (ΔramR) strains (Table 6); assay type: cell-based, Klebsiella pneumoniae; conditions: Klebsiella pneumoniae
Outline: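 Etest MICs against K. pneumoniae NVT1001 and its ΔompK35/36 and/or ΔramR mutants, rounded up to the next two-fold value. For NVT1001 carrying pACYC177-blaOXA-48, ceftazidime and cefotaxime MICs by CLSI broth microdilution, interpreted with CLSI 2017 breakpoints.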

[6] = test system: K. pneumoniae NVT1001 ΔramRΔompK35/36 mutant and its revertants; experiment: Etest MIC, ΔramRΔompK35/36 mutant and its revertants (Table 7); assay type: cell-based; conditions: Klebsiella pneumoniae
[7] = NVT1001, Tet(A) on pACYC177, read-out: MIC
[8] = NVT1001, Tet(B) on pACYC177, read-out: MIC
[9] = NVT1001, Tet(C) on pACYC177, read-out: MIC
[10] = NVT1001, Tet(D) on pACYC177, read-out: MIC
[11] = NVT1001, Tet(M) on pACYC177, read-out: MIC
[12] = Acinetobacter baumannii, A91V mutant (AdeR)
[13] = Acinetobacter baumannii, A94V mutant (AdeS)
[14] = Acinetobacter baumannii, D20N mutant (AdeR)
[15] = Acinetobacter baumannii, G30D mutant (AdeS)
[16] = Acinetobacter baumannii, KW1, read-out: MIC
[17] = Acinetobacter baumannii, P116L mutant (AdeR)
[18] = Acinetobacter baumannii, R152K mutant (AdeS)
[19] = Acinetobacter baumannii, T153M mutant (AdeS)

In the case of `CC(C)(O/N=C(\C(=O)N[C@@H]1C(=O)N2C(C(=O)[O-])=C(C[n+]3ccccc3)CS[C@H]12)c1csc(N)n1)C(=O)O` [CAZ], the MIC ([1]; KW1, no supplemental plasmid) is reported as 4 µg/mL, the MIC ([1]; KW1 with ADC-30 on pYMAb5) is reported as >256 µg/mL and the MIC ([1]; KW1 with CTX-M-15 on pYMAb5) is reported as >256 µg/mL. For the same compound, the MIC ([1]; KW1 with IMP-1 on pYMAb5) was 48 µg/mL, the MIC ([1]; KW1 with NDM-1 on pYMAb5) was >256 µg/mL and the MIC ([1]; KW1 with OXA-23 on pYMAb5) was 3 µg/mL. It also gave an MIC ([1]; KW1 with OXA-58 on pYMAb5) of 3 µg/mL, an MIC ([1]; KW1 with OXA-66 on pYMAb5) of 3 µg/mL and an MIC ([1]; KW1 with OXA-72 on pYMAb5) of 3 µg/mL. The MIC ([1]; KW1 with VEB-3 on pYMAb5) was >256 µg/mL, the MIC ([1]; KW1 with VIM-1 on pYMAb5) was >256 µg/mL and the MIC ([1]; KW1 with shuttle vector pYMAb5) was 3 µg/mL. The MIC ([2]; A91V mutant (AdeR)) was 16 µg/mL, the MIC ([2]; A94V mutant (AdeS)) was 8 µg/mL and the MIC ([2]; D20N mutant (AdeR)) was 12 µg/mL. The MIC ([2]; G30D mutant (AdeS)) was 8 µg/mL, the MIC ([2]; KW1) was 4 µg/mL and the MIC ([2]; P116L mutant (AdeR)) was 8 µg/mL. The MIC ([2]; R152K mutant (AdeS)) was 8 µg/mL and the MIC ([2]; T153M mutant (AdeS)) was 8 µg/mL.
With `CN(C)[C@@H]1C(O)=C(C(N)=O)C(=O)[C@@]2(O)C(O)=C3C(=O)c4c(O)cccc4[C@@](C)(O)[C@H]3C[C@@H]12` [Tetracycline, tetracycline] the MIC [3, 7] was > 256 µg/mL, the MIC [3, 8] was > 256 µg/mL and the MIC [3, 9] was 16 µg/mL. For the same compound, the MIC [3, 10] was > 256 µg/mL, the MIC [3, 11] was 16 µg/mL and the MIC ([3]; ΔramR, Tet(A) on pACYC177) was > 256 µg/mL. For the same compound, the MIC ([3]; ΔramR, Tet(B) on pACYC177) was > 256 µg/mL, the MIC ([3]; ΔramR, Tet(C) on pACYC177) was 256 µg/mL and the MIC ([3]; ΔramR, Tet(D) on pACYC177) was > 256 µg/mL. The MIC ([3]; ΔramR, Tet(M) on pACYC177) was 128 µg/mL, the MIC ([4]; KW1, Tet(A) on pYMAb5) was 128 µg/mL and the MIC ([4]; KW1, Tet(B) on pYMAb5) was > 256 µg/mL. For the same compound, the MIC ([4]; KW1, Tet(M) on pYMAb5) was 48 µg/mL, the MIC ([4]; KW1, no supplemental plasmid) was 3 µg/mL and the MIC ([4]; KW1 with shuttle vector pYMAb5) was 3 µg/mL. The “increase in the MIC” value ([4]; production of Tet(A), Tet(B) or Tet(C)) was 4 fold, the MIC ([5]; Δ36, ΔompK36 mutant) was 2 µg/mL (≈ 4.5 µM) and the MIC [2, 12] was 12 µg/mL. The MIC [2, 13] was 6 µg/mL, the MIC [2, 14] was 8 µg/mL and the MIC [2, 15] was 8 µg/mL. The MIC [2, 16] was 3 µg/mL, the MIC [2, 17] was 6 µg/mL and the MIC [2, 18] was 6 µg/mL. For the same compound, the MIC [2, 19] was 8 µg/mL.
`CN(C)c1cc(NC(=O)CNC(C)(C)C)c(O)c2c1C[C@H]1C[C@H]3[C@H](N(C)C)C(O)=C(C(N)=O)C(=O)[C@@]3(O)C(O)=C1C2=O` [Tigecycline, tigecycline] showed an MIC [3, 7] of 8 µg/mL, an MIC [3, 8] of 1 µg/mL and an MIC [3, 9] of 1 µg/mL. The MIC [3, 10] was 1 µg/mL, the MIC [3, 11] was 1 µg/mL and the MIC ([3]; NVT1001, no supplemental plasmid, read-out: MIC) was 1 µg/mL. It also gave an MIC ([3]; ΔramR, Tet(A) on pACYC177) of 32 µg/mL, an MIC ([3]; ΔramR, Tet(B) on pACYC177) of 8 µg/mL and an MIC ([3]; ΔramR, Tet(C) on pACYC177) of 8 µg/mL. It also gave an MIC ([3]; ΔramR, Tet(D) on pACYC177) of 8 µg/mL, an MIC ([3]; ΔramR, Tet(M) on pACYC177) of 8 µg/mL and an MIC ([3]; ΔramR, no supplemental plasmid) of 8 µg/mL. The “increase in the MIC” value ([3]; Tet(A) production) was 8 fold, the “effects on the MIC” value ([3]; production of Tet(B), Tet(C), Tet(D) or Tet(M), with or without ΔramR) was “no observable effects” and the “increase in the MIC” value ([3]; {}) was 8 fold. For the same compound, the MIC ([4]; KW1, Tet(A) on pYMAb5) was 1 µg/mL, the MIC ([4]; KW1, Tet(B) on pYMAb5) was 0.38 µg/mL and the MIC ([4]; KW1, Tet(M) on pYMAb5) was 0.38 µg/mL. For the same compound, the MIC ([4]; KW1, no supplemental plasmid) was 0.38 µg/mL, the MIC ([4]; KW1 with shuttle vector pYMAb5) was 0.38 µg/mL and the “effects on the MIC” value ([4]; production of Tet(B) or Tet(M)) was “no observable effects”. It also gave an MIC ([5]; WT, NVT1001, read-out: MIC) of 1 µg/mL (≈ 1.71 µM), an MIC ([5]; Δ35, ΔompK35 mutant) of 1 µg/mL (≈ 1.71 µM) and an MIC ([5]; Δ35/36, ΔompK35/36 mutant) of 1 µg/mL (≈ 1.71 µM). The MIC ([5]; Δ36, ΔompK36 mutant) was 1 µg/mL (≈ 1.71 µM), the MIC ([5]; ΔramR mutant) was 8 µg/mL (≈ 13.7 µM) and the MIC ([5]; ΔramRΔ35, ΔramRΔompK35 mutant) was 8 µg/mL (≈ 13.7 µM). It also gave an MIC ([5]; ΔramRΔ35/36, ΔramRΔompK35/36 mutant) of 8 µg/mL (≈ 13.7 µM), an MIC ([5]; ΔramRΔ36, ΔramRΔompK36 mutant) of 8 µg/mL (≈ 13.7 µM) and an MIC [2, 12] of 3 µg/mL. The MIC [2, 13] was 2 µg/mL, the MIC [2, 14] was 2 µg/mL and the MIC [2, 15] was 3 µg/mL. The MIC [2, 16] was 0.25 µg/mL, the MIC [2, 17] was 1.5 µg/mL and the MIC [2, 18] was 2 µg/mL. The MIC [2, 19] was 3 µg/mL, the MIC ([6]; ΔramRΔompK35/36::ompK35/36 revertant) was 8 µg/mL and the MIC ([6]; ΔramRΔompK35/36::ompK35 revertant) was 8 µg/mL. It also gave an MIC ([6]; ΔramRΔompK35/36::ompK36 revertant) of 8 µg/mL, an MIC ([6]; ΔramRΔompK35/36::ramR revertant) of 1 µg/mL and an MIC ([6]; ΔramRΔompK35/36::ramR::ompK35/36 revertant) of 1 µg/mL. The MIC ([6]; ΔramRΔompK35/36::ramR::ompK35 revertant) was 1 µg/mL, the MIC ([6]; ΔramRΔompK35/36::ramR::ompK36 revertant) was 1 µg/mL and the MIC ([6]; ΔramRΔompK35/36 mutant) was 8 µg/mL.
